Assay results: ChEMBL document CHEMBL5528027, “Target identification, and optimization of dioxygenated amide derivatives as potent antibacterial agents with FabH inhibitory activity” (Eur J Med Chem, 2024)
Converted amounts (≈) assume the structure as drawn.

Assays:
[1] = test system: Escherichia coli; assay: Antibacterial activity against Escherichia coli assessed as reduction in bacterial growth measured after 24 hrs by two-fold serial dilution method; type: functional
[2] = test system: Pseudomonas aeruginosa; assay: Antibacterial activity against Pseudomonas aeruginosa assessed as reduction in bacterial growth measured after 24 hrs by two-fold serial dilution method; type: functional
[3] = test system: Bacillus subtilis; assay: Antibacterial activity against Bacillus subtilis assessed as reduction in bacterial growth measured after 24 hrs by two-fold serial dilution method; type: functional
[4] = test system: Staphylococcus aureus; assay: Antibacterial activity against Staphylococcus aureus assessed as reduction in bacterial growth measured after 24 hrs by two-fold serial dilution method; type: functional
[5] = test system: Klebsiella pneumoniae; assay: Antibacterial activity against Klebsiella pneumoniae assessed as reduction in bacterial growth measured after 24 hrs by two-fold serial dilution method; type: functional
[6] = test system: Streptococcus pneumoniae; assay: Antibacterial activity against Streptococcus pneumoniae assessed as reduction in bacterial growth measured after 24 hrs by two-fold serial dilution method; type: functional
[7] = biological target: T1, Beta-ketoacyl-[acyl-carrier-protein] synthase III (Escherichia coli K-12, UniProt P0A6R0); assay: Inhibition of Escherichia coli FabH
T1 sequence (P0A6R0 whole entry): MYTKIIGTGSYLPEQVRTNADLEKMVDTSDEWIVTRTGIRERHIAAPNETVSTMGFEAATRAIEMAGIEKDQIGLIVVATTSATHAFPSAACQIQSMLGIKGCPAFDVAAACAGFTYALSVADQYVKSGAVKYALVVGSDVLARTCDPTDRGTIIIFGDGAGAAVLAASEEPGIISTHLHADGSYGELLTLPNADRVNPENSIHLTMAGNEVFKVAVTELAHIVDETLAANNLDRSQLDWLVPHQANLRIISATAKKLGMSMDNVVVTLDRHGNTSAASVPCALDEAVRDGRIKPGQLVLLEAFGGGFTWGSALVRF

[8] = test system: Erythrocyte; assay: Hemolytic activity in human erythrocytes assessed as hemolysis by spectrophotometric analysis; type: toxicity, cell-based
[9] = Cytotoxicity against mouse NIH3T3 cells incubated for 24 hrs by MTT analysis; type: toxicity, cell-based

SMILES | MIC [1] [µg/mL] | MIC [2] [µg/mL] | MIC [3] [µg/mL] | MIC [4] [µg/mL] | MIC [5] [µg/mL] | MIC [6] [µg/mL] | IC50 [7] [µM] | HC30 [8] [µg/mL] | IC50 at 24 h [9] [µM]
O=C(Nc1cccc2ncccc12)c1ccc2c(c1)OCCCO2 | 50 (≈ 156 µM) | 25 (≈ 78 µM) | 50 (≈ 156 µM) | 50 (≈ 156 µM) | 25 (≈ 78 µM) | 25 (≈ 78 µM) |  |  | 
CC(=O)c1cccnc1NC(=O)c1ccc2c(c1)OCCCO2 | 6.25 (≈ 20 µM) | > 100 | 50 (≈ 160 µM) | 50 (≈ 160 µM) | 25 (≈ 80 µM) | > 100 | 46.4 | > 10 | 128
CC(=O)N1CCC(NC(=O)c2ccc3c(c2)OCCCO3)CC1 | 12.5 (≈ 39.3 µM) | 3.13 (≈ 9.83 µM) | 25 (≈ 78.5 µM) | 3.13 (≈ 9.83 µM) | 3.13 (≈ 9.83 µM) | 25 (≈ 78.5 µM) | 17.5 | > 10 | 132
O=C(Nc1ccnc2ccccc12)c1ccc2c(c1)OCCCO2 | 50 (≈ 156 µM) | 50 (≈ 156 µM) | 50 (≈ 156 µM) | 25 (≈ 78 µM) | 50 (≈ 156 µM) | 50 (≈ 156 µM) |  |  | 
O=C(Nc1nccc2ccccc12)c1ccc2c(c1)OCCCO2 | 50 (≈ 156 µM) | 50 (≈ 156 µM) | > 100 | 50 (≈ 156 µM) | 25 (≈ 78 µM) | > 100 |  |  | 
NC[C@H]1O[C@H](O[C@H]2[C@H](O)[C@@H](O[C@H]3O[C@H](CO)[C@@H](O)[C@H](N)[C@H]3O)[C@H](N)C[C@@H]2N)[C@H](N)[C@@H](O)[C@@H]1O [BEKANAMYCIN] | 3.13 (≈ 6.47 µM) | 3.13 (≈ 6.47 µM) | 1.56 (≈ 3.23 µM) | 1.56 (≈ 3.23 µM) | 3.13 (≈ 6.47 µM) | 50 (≈ 103 µM) |  |  | 
O=C(Nc1cccc2cccnc12)c1ccc2c(c1)OCCCO2 | 12.5 (≈ 39 µM) | 25 (≈ 78 µM) | 12.5 (≈ 39 µM) | 25 (≈ 78 µM) | 50 (≈ 156 µM) | 25 (≈ 78 µM) |  |  | 
O=C(Nc1ccc(C(F)(F)F)cn1)c1ccc2c(c1)OCCCO2 | 3.13 (≈ 9.25 µM) | 6.25 (≈ 18.5 µM) | > 100 | 50 (≈ 148 µM) | 6.25 (≈ 18.5 µM) | 25 (≈ 73.9 µM) | 8.6 | > 10 | 204
O=C(c1ccc2c(c1)OCCCO2)N1CCN(C(=O)c2ccc3c(c2)OCCCO3)CC1 | > 100 | > 100 | 50 (≈ 114 µM) | > 100 | > 100 | > 100 |  |  | 
O=C(Nc1cc(Cl)cc2cccnc12)c1ccc2c(c1)OCCCO2 | 1.56 (≈ 4.4 µM) | 1.56 (≈ 4.4 µM) | 12.5 (≈ 35.2 µM) | 3.13 (≈ 8.82 µM) | 3.13 (≈ 8.82 µM) | 12.5 (≈ 35.2 µM) | 4.9 | > 10 | 115
O=C(Nc1cccnc1)c1ccc2c(c1)OCCCO2 | 25 (≈ 92.5 µM) | 50 (≈ 185 µM) | > 100 | 50 (≈ 185 µM) | 25 (≈ 92.5 µM) | 50 (≈ 185 µM) |  |  | 
O=C(Nc1cncc(Cl)n1)c1ccc2c(c1)OCCCO2 | 25 (≈ 81.8 µM) | 25 (≈ 81.8 µM) | 25 (≈ 81.8 µM) | 25 (≈ 81.8 µM) | 25 (≈ 81.8 µM) | 50 (≈ 164 µM) |  |  | 
O=C(Nc1ccccn1)c1ccc2c(c1)OCCCO2 | 12.5 (≈ 46.2 µM) | 50 (≈ 185 µM) | 25 (≈ 92.5 µM) | 50 (≈ 185 µM) | 50 (≈ 185 µM) | > 100 |  |  | 
O=C(Nc1ccc2ccccc2n1)c1ccc2c(c1)OCCCO2 | 25 (≈ 78 µM) | 25 (≈ 78 µM) | 25 (≈ 78 µM) | 25 (≈ 78 µM) | 50 (≈ 156 µM) | 25 (≈ 78 µM) |  |  | 
C#CCCC1(CCNC(=O)c2ccc3c(c2)OCCCO3)N=N1 | 6.25 (≈ 19.9 µM) | 6.25 (≈ 19.9 µM) | 6.25 (≈ 19.9 µM) | 6.25 (≈ 19.9 µM) |  |  |  |  | 
O=C(c1ccc2c(c1)OCCCO2)N1CCOCC1 | 25 (≈ 95 µM) | 25 (≈ 95 µM) | 25 (≈ 95 µM) | 12.5 (≈ 47.5 µM) | 12.5 (≈ 47.5 µM) | 50 (≈ 190 µM) |  |  | 
CC1(CCCNC(=O)c2ccc3c(c2)OCCCO3)N=N1 | 12.5 (≈ 43.2 µM) | 25 (≈ 86.4 µM) | 25 (≈ 86.4 µM) | 25 (≈ 86.4 µM) |  |  |  |  | 
